According to US12077503B2, “Substituted cyclic amides and their use as herbicides” (FMC CORPORATION, priority 2015, dated 2024):

Legend:
Assay type in all cases: in vivo
Kochia (Kochia scoparia) [1] = assay: Test A preemergence; settings: Bassia scoparia, pre-emergence, 240 h, 0 to 100 scale where 0 is no effect and 100 is complete control, read-out: Kochia plant response rating; for pest or weed control at 31 g/ha: 31 g ai/ha, Preemergence; for pest or weed control at 125 g/ha: 125 g ai/ha, preemergence, approx. 10 d
Method in brief: (§1)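 Preemergence directed soil spray on seeded pots, or postemergence application to plants 2–10 cm, one- to two-leaf. Solvent mixture non-phytotoxic, with surfactant. Scored ~10 d later, visually, 0–100 vs untreated.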

[2] = tested on: ragweed (common ragweed, Ambrosia elatior); assay: Test A preemergence; settings: Ambrosia artemisiifolia, pre-emergence, 240 h, 0 to 100 scale where 0 is no effect and 100 is complete control, read-out: Ragweed plant response rating; for pest or weed control at 31 g/ha: 31 g ai/ha, Preemergence; for pest or weed control at 125 g/ha: 125 g ai/ha, preemergence, approx. 10 d
Method in brief: as §1

[3] = tested on: ryegrass, Italian (Italian ryegrass, Lolium multiflorum); assay: Test A preemergence; settings: Lolium multiflorum, pre-emergence, 240 h, 0 to 100 scale where 0 is no effect and 100 is complete control, read-out: Ryegrass, Italian plant response rating; for pest or weed control at 31 g/ha: 31 g ai/ha, Preemergence; for pest or weed control at 125 g/ha: 125 g ai/ha, preemergence, approx. 10 d
Method in brief: as §1

[4] = tested on: pigweed (Amaranthus retroflexus); assay: Test A preemergence; settings: Amaranthus retroflexus, pre-emergence, 240 h, 0 to 100 scale where 0 is no effect and 100 is complete control, read-out: Pigweed plant response rating; for pest or weed control at 31 g/ha: 31 g ai/ha, Preemergence; for pest or weed control at 125 g/ha: 125 g ai/ha, preemergence, approx. 10 d
[5] = tested on: barnyardgrass (Echinochloa crus-galli); assay: Test A preemergence; settings: Echinochloa crus-galli, pre-emergence, 240 h, Preemergence; for pest or weed control at 31 g/ha: 31 g ai/ha, 0 to 100 scale where 0 is no effect and 100 is complete control, read-out: Barnyardgrass plant response rating; for pest or weed control at 125 g/ha: 125 g ai/ha, visual injury rating after approximately 10 d, read-out: Barnyardgrass plant response rating (0 to 100 scale, 0 is no effect, 100 is complete control)
Method in brief: as §1

corn (Zea mays) = assay: Test A postemergence; settings: Zea mays, post-emergence, 240 h; for plant injury at 125 g/ha: 125 g ai/ha, postemergence, visual injury on 0 to 100 scale (0 no effect, 100 complete control), approx. 10 d, read-out: Corn plant response rating; for Corn plant response rating (crop injury, 0 = no effect, 100 = complete kill) at 31 g/ha: Postemergence, 31 g ai/ha, visual injury after approx. 10 d, 0 to 100 scale, 100 complete control
Method in brief: as §1

Kochia (Kochia scoparia) [6] = assay: Test A postemergence; settings: Bassia scoparia, post-emergence, 240 h; for pest or weed control at 125 g/ha: 125 g ai/ha, postemergence, visual injury on 0 to 100 scale (0 no effect, 100 complete control), approx. 10 d, read-out: Kochia plant response rating; for pest or weed control at 31 g/ha: Postemergence, 31 g ai/ha, visual injury after approx. 10 d, 0 to 100 scale, 0 no effect, 100 complete control, read-out: Plant response rating, Kochia
Method in brief: as §1

[7] = tested on: ragweed (common ragweed, Ambrosia elatior); assay: Test A postemergence; settings: Ambrosia artemisiifolia, post-emergence, 240 h; for pest or weed control at 125 g/ha: 125 g ai/ha, postemergence, visual injury on 0 to 100 scale (0 no effect, 100 complete control), approx. 10 d, read-out: Ragweed plant response rating; for pest or weed control at 31 g/ha: Postemergence, 31 g ai/ha, visual injury after approx. 10 d, 0 to 100 scale, 0 no effect, 100 complete control, read-out: Plant response rating, Ragweed
Method in brief: as §1

[8] = tested on: Galium (catchweed bedstraw, Galium aparine); assay: Test A postemergence; settings: Galium, post-emergence, 240 h; for pest or weed control at 125 g/ha: 125 g ai/ha, postemergence, visual injury on 0 to 100 scale (0 no effect, 100 complete control), approx. 10 d, read-out: Galium plant response rating; for pest or weed control at 31 g/ha: Postemergence, 31 g ai/ha, visual injury after approx. 10 d, 0 to 100 scale, 0 no effect, 100 complete control, read-out: Plant response rating, Galium
Method in brief: as §1

[9] = tested on: blackgrass (Alopecurus myosuroides); assay: Test A postemergence; settings: Alopecurus myosuroides, post-emergence, 240 h; for pest or weed control at 125 g/ha: 125 g ai/ha, postemergence, visual injury on 0 to 100 scale (0 no effect, 100 complete control), approx. 10 d, read-out: Blackgrass plant response rating; for pest or weed control at 31 g/ha: Postemergence, 31 g ai/ha, visual injury after approx. 10 d, 0 to 100 scale, 0 no effect, 100 complete control, read-out: Plant response rating, Blackgrass
Method in brief: as §1

[10] = tested on: ryegrass, Italian (Italian ryegrass, Lolium multiflorum); assay: Test A postemergence; settings: Lolium multiflorum, post-emergence, 240 h; for pest or weed control at 125 g/ha: 125 g ai/ha, postemergence, visual injury on 0 to 100 scale (0 no effect, 100 complete control), approx. 10 d, read-out: Ryegrass, Italian plant response rating; for pest or weed control at 31 g/ha: Postemergence, 31 g ai/ha, visual injury after approx. 10 d, 0 to 100 scale, 0 no effect, 100 complete control, read-out: Plant response rating, Ryegrass, Italian
Method in brief: as §1

[11] = tested on: wheat (Triticum aestivum); assay: Test A postemergence; settings: Triticum aestivum, post-emergence, 240 h; for plant injury at 125 g/ha: 125 g ai/ha, postemergence, visual injury on 0 to 100 scale (0 no effect, 100 complete control), approx. 10 d, read-out: Wheat plant response rating; for plant injury at 31 g/ha: Postemergence, 31 g ai/ha, visual injury after approx. 10 d, 0 to 100 scale, 0 no effect, 100 complete control, read-out: Plant response rating, Wheat
Method in brief: as §1

[12] = tested on: pigweed (Amaranthus retroflexus); assay: Test A postemergence; settings: Amaranthus retroflexus, post-emergence, 240 h; for pest or weed control at 125 g/ha: 125 g ai/ha, postemergence, visual injury on 0 to 100 scale (0 no effect, 100 complete control), approx. 10 d, read-out: Pigweed plant response rating; for pest or weed control at 31 g/ha: Postemergence, 31 g ai/ha, visual injury after approx. 10 d, 0 to 100 scale, 0 no effect, 100 complete control, read-out: Plant response rating, Pigweed
Method in brief: as §1

[13] = tested on: giant foxtail (Setaria faberii); assay: Test A postemergence; settings: Setaria faberi, post-emergence, 240 h; for pest or weed control at 125 g/ha: 125 g ai/ha, postemergence, visual injury on 0 to 100 scale (0 no effect, 100 complete control), approx. 10 d, read-out: Foxtail, Giant plant response rating; for pest or weed control at 31 g/ha: Postemergence, 31 g ai/ha, visual injury after approx. 10 d, 0 to 100 scale, 0 no effect, 100 complete control, read-out: Plant response rating, Foxtail, Giant
Method in brief: as §1

[14] = tested on: barnyardgrass (Echinochloa crus-galli); assay: Test A postemergence; settings: Echinochloa crus-galli, post-emergence, 240 h; for pest or weed control at 125 g/ha: 125 g ai/ha, postemergence, visual injury on 0 to 100 scale (0 no effect, 100 complete control), approx. 10 d, read-out: Barnyardgrass plant response rating; for pest or weed control at 31 g/ha: Postemergence, 31 g ai/ha, visual injury after approx. 10 d, 0 to 100 scale, 0 no effect, 100 complete control, read-out: Plant response rating, Barnyardgrass
Method in brief: as §1

COc1cccc([C@H]2CN(C)C(=O)[C@@H]2C(=O)Nc2cccc(F)c2F)c1 [Compound 1062]
pest or weed control at 31 g/ha (Kochia (Kochia scoparia) [1]): 0% | pest or weed control at 125 g/ha (Kochia (Kochia scoparia) [1]): 20% | pest or weed control at 31 g/ha [2]: 70% | pest or weed control at 125 g/ha [2]: 0% | pest or weed control at 31 g/ha [3]: 10% | pest or weed control at 125 g/ha [3]: 20% | pest or weed control at 31 g/ha [4]: 0% | pest or weed control at 125 g/ha [4]: 0% | pest or weed control at 31 g/ha [5]: 100% | pest or weed control at 125 g/ha [5]: 100% | plant injury at 125 g/ha (corn (Zea mays)): 0% | Corn plant response rating (crop injury, 0 = no effect, 100 = complete kill) at 31 g/ha (corn (Zea mays)): 0% | pest or weed control at 125 g/ha (Kochia (Kochia scoparia) [6]): 0% | pest or weed control at 31 g/ha (Kochia (Kochia scoparia) [6]): 0% | pest or weed control at 125 g/ha [7]: 30% | pest or weed control at 31 g/ha [7]: 30% | pest or weed control at 125 g/ha [8]: 50% | pest or weed control at 31 g/ha [8]: 0% | pest or weed control at 125 g/ha [9]: 30% | pest or weed control at 31 g/ha [9]: 0% | pest or weed control at 125 g/ha [10]: 20% | pest or weed control at 31 g/ha [10]: 0% | plant injury at 125 g/ha [11]: 30% | plant injury at 31 g/ha [11]: 0% | pest or weed control at 125 g/ha [12]: 0% | pest or weed control at 31 g/ha [12]: 0% | pest or weed control at 125 g/ha [13]: 90% | pest or weed control at 31 g/ha [13]: 90% | pest or weed control at 125 g/ha [14]: 90% | pest or weed control at 31 g/ha [14]: 70%

COc1cccc([C@H]2CN(C)C(=O)[C@@H]2C(=O)Nc2ccc(F)c(F)c2F)c1 [Compound 1063]
pest or weed control at 31 g/ha (Kochia (Kochia scoparia) [1]): 10% | pest or weed control at 125 g/ha (Kochia (Kochia scoparia) [1]): 20% | pest or weed control at 31 g/ha [2]: 0% | pest or weed control at 125 g/ha [2]: 30% | pest or weed control at 31 g/ha [3]: 0% | pest or weed control at 125 g/ha [3]: 0% | pest or weed control at 31 g/ha [4]: 0% | pest or weed control at 125 g/ha [4]: 0% | pest or weed control at 31 g/ha [5]: 100% | pest or weed control at 125 g/ha [5]: 100% | plant injury at 125 g/ha (corn (Zea mays)): 50% | Corn plant response rating (crop injury, 0 = no effect, 100 = complete kill) at 31 g/ha (corn (Zea mays)): 0% | pest or weed control at 125 g/ha (Kochia (Kochia scoparia) [6]): 0% | pest or weed control at 31 g/ha (Kochia (Kochia scoparia) [6]): 0% | pest or weed control at 125 g/ha [7]: 0% | pest or weed control at 31 g/ha [7]: 0% | pest or weed control at 125 g/ha [8]: 50% | pest or weed control at 31 g/ha [8]: 30% | pest or weed control at 125 g/ha [9]: 30% | pest or weed control at 31 g/ha [9]: 20% | pest or weed control at 125 g/ha [10]: 30% | pest or weed control at 31 g/ha [10]: 0% | plant injury at 125 g/ha [11]: 40% | plant injury at 31 g/ha [11]: 0% | pest or weed control at 125 g/ha [12]: 20% | pest or weed control at 31 g/ha [12]: 0% | pest or weed control at 125 g/ha [13]: 90% | pest or weed control at 31 g/ha [13]: 80% | pest or weed control at 125 g/ha [14]: 90% | pest or weed control at 31 g/ha [14]: 70%
